*: point of attachment. Decanoyl = CCCCCCCCCC(=O)*; CH2Cl = ClC*
Columns and labels:
Htet1/SD614G cells = type: cell-based, human; settings: for effect on trafficking of Spike to lysosomes: 20 hours, 50 μM dynasore, 20 μM pitstop2, 1 μM nocodazole, 43 nM bafilomycin
[1] = tested on: doxycycline-induced Htet1/SW1 cells; type: cell-based, human

| Compound | effect on trafficking of Spike to lysosomes (Htet1/SD614G cells) | also measured |
| --- | --- | --- |
| O=C(N/N=C/c1ccc(O)c(O)c1)c1cc2ccccc2cc1O [dynasore] | Neither had a noticeable impact on the trafficking of Spike to lysosomes | – |
| COC(=O)Nc1nc2ccc(C(=O)c3cccs3)cc2[nH]1 [nocodazole] | had no effect | – |
| O=C1NC(=NS(=O)(=O)c2cccc3ccccc23)S/C1=C\c1ccc(Br)cc1 [pitstop2] | Neither had a noticeable impact on the trafficking of Spike to lysosomes | – |
| Decanoyl-RVKR-CH2Cl | – | effect on Spike cell surface expression and furin-mediated processing [1]: reduced Spike's cell surface expression and furin-mediated processing |
| bafilomycin | redirected Spike into the Golgi and plasma membranes, preventing its accumulation in lysosomes | – |
| vacuolin-1 | – | Spike localization after vacuolin-1 treatment (Htet1/SD614G cells; vacuolin-1 10 μg/ml for three hours): Spike localization to lysosome membranes was also apparent |

— patent US20240336660A1 (priority 2021, published 2024)
